Legend:
[1] = system: MRSA; test: modified quantitative germicidal spray / quantitative carrier test, Example 1; assay type: cell-based, Staphylococcus aureus; conditions: criterion: complete kill on 9 of 10 carriers, positive carrier at least 99% reduction; one minute
Procedure: Sterile 50 mL centrifuge tubes, pre-filled with 20 mL of desired neutralizer.
Use 3″×1″ sterile glass containers. Place each carrier into a sterile Petri plastic dish.
Inoculate each carrier with 10 μL of bacterial or fungal suspension. If a carrier has a frosted end, inoculate the non-frosted end.
Using a sterile inoculating needle, spread the inoculum into an approximate 1 cm×1 cm square.
Dry the carriers in a 35° C. incubator for 30 min (lids cracked) or 40 min (lids closed).
Spray each carrier as specified by the test product. Ensure the inoculated area is thoroughly covered. Because of the time it takes to transfer the carrier into the neutralizer, a 30-second (or longer) interval time is recommended.
After the specified exposure time, transfer each carrier to a pre-filled centrifuge tube using forceps. Be sure to pick up the carrier by the non-inoculated end and place the inoculated end into the neutralizer.
Immediately close the cap and invert the tube several times (10 should be sufficient) so the neutralizer coats the entire carrier.
From this point on, follow the enumeration procedure as specified in the Quantitative Carrier Test SOP. […]
The aim of these sets of experiments is to compare the activity of these various solutions on a 10-set slid carriers of MRSA using standard EPA quantitate carrier test in 25-50% calf serum.

[2] = system: Candida glabrata; test: modified Kuhn's biofilm model on silicone discs, lock solutions; assay type: cell-based; conditions: quantitative culture of biofilm discs after 2 hrs in solution at 37° C.
Procedure: (§1) Biofilm was grown on sterile silicone discs following a modified Kuhn's method. Briefly, silicone discs were placed into a 24 well tissue culture plate and incubated overnight at 37° C. The plasma was then removed and replaced with 1 mL of 5.5×10^5 CFU/mL inoculum of various organisms. The plates were then incubated for an additional 24 hrs at 37° C. Inoculum was then removed and discs were washed shaking for 30 minutes in 0.9% sterile saline. After washing the discs were placed in 1 mL of various antimicrobial solutions and incubated at 37° C. for 2 hrs. The discs were then removed and placed in 5 mL of 0.9% sterile saline and sonicated to disrupt any remaining biofilm. The resulting solution was then quantitatively cultured by making serial dilutions in 0.9% sterile saline and plating on agar plates, TSA+5% sheep blood for all bacterial organisms and Sabouraud Dextrose Agar for yeasts. A total of 3-9 discs were used for both organisms and respective labs solutions (see Tables 4-6).
(§2) Statistical methods: Wilcoxon rank sum tests were used for comparisons. All the analyses were performed using SAS version 9.1 (SAS Institute Inc., Cary, N.C.).

[3] = system: MDR-Pseudomonas aeruginosa (PS 4689); test: as above; assay type: cell-based; conditions: quantitative culture of biofilm discs after 2 hrs in solution at 37° C.
Procedure: as §1, §2

[4] = system: methicillin resistant Staphylococcus aureus (MRSA 4798); test: as above; assay type: cell-based; conditions: quantitative culture of biofilm discs after 2 hrs in solution at 37° C.
Procedure: as §1, §2

| SMILES | test of being highly effective against MRSA (passed/failed) [1] | Mean [2] | Median (range) [2] | Mean [3] | Median (range) [3] | Mean [4] | Median (range) [4] |
| --- | --- | --- | --- | --- | --- | --- | --- |
| N=C(NCCCCCCNC(=N)NC(=N)Nc1ccc(Cl)cc1)NC(=N)Nc1ccc(Cl)cc1 [0.06% CHG alone, 1,1′-hexamethylene-bis-[5-(4-chlorophenyl)-biguanide]] | failed the test | – | – | – | – | – | – |
| OCC(O)CO [50% Glycerol alone, Glycerol] | – | 6.2 × 10^3 | 1.1 × 10^3 | 1.0 × 10^6 | 1.0 × 10^6 | 1.0 × 10^7 | 1.0 × 10^6 |

Reference: patent US9565857B2, “Antimicrobial solutions” (Board of Regents, The University of Texas System, priority 2010, dated 2017)
